Assays:
[1] = test system: Anopheles gambiae (target-site-resistant and metabolic-resistant strain: RSPH); experiment: Glazed tile contact test, knock-down; assay type: in vivo
[2] = test system: Cimex Lectularius, strain Cincinnati (CIN-1); experiment: Spray test on bed bugs on glazed tile; assay type: in vivo; settings: for Amount of animals that are knocked down/killed: 10 bed bugs
Protocol: To produce a suitable preparation Transfluthrin was dissolved in acetone in various concentrations (0.1 mg Transfluthrin/ml; 0.01 mg Transfluthrin/ml and 0.001 mg Transfluthrin/ml). Efficacy tests were done by placing 10 bed bug test animals (Cimex Lectularius, strain Cincinnati (CIN-1)) onto a glazed tile. The prepared solutions in various concentractions were sprayed with a glass nozzle onto the bed bugs on the glazed tile. After spraying the bed bugs were transferred to plastic cups. 5 minutes, 10 minutes, 15 minutes, 20 minutes, 0.5 hour, 1 hour, 2 hour, 4 hour and 24 hours after the treatment, the knock-down proportion of the test animals was determined.

CC=CC1C(C(=O)OCc2c(F)c(F)c(COC)c(F)c2F)C1(C)C (centres unmarked) [Metofluthrin, 2,3,5,6-Tetrafluoro-4-(methoxymethyl)benzyl 2,2-dimethyl-3-(prop-1-en-1-yl)cyclopropanecarboxylate]
Effect % ([1]; 0.064 g/ha, 0.25 h after contact): 0% | Effect % ([1]; 0.064 g/ha, 0.5 h after contact): 0% | Effect % ([1]; 0.064 g/ha, 1 h after contact): 0% | Effect % ([1]; 0.064 g/ha, 2 h after contact): 0% | Effect % ([1]; 0.064 g/ha, 3 h after contact): 0% | Effect % ([1]; 0.064 g/ha, 4 h after contact): 10% | Effect % ([1]; 0.064 g/ha, 24 h after contact): 20% | Effect % ([1]; 0.32 g/ha, 0.25 h after contact): 0% | Effect % ([1]; 0.32 g/ha, 0.5 h after contact): 10% | Effect % ([1]; 0.32 g/ha, 1 h after contact): 10% | Effect % ([1]; 0.32 g/ha, 2 h after contact): 10% | Effect % ([1]; 0.32 g/ha, 3 h after contact): 0% | Effect % ([1]; 0.32 g/ha, 4 h after contact): 10% | Effect % ([1]; 0.32 g/ha, 24 h after contact): 20% | Effect % ([1]; 1.6 g/ha, 0.25 h after contact): 100% | Effect % ([1]; 1.6 g/ha, 0.5 h after contact): 100% | Effect % ([1]; 1.6 g/ha, 1 h after contact): 100% | Effect % ([1]; 1.6 g/ha, 2 h after contact): 100% | Effect % ([1]; 1.6 g/ha, 3 h after contact): 100% | Effect % ([1]; 1.6 g/ha, 4 h after contact): 100% | Effect % ([1]; 1.6 g/ha, 24 h after contact): 100% | Effect % ([1]; 8 g/ha, 0.25 h after contact): 100% | Effect % ([1]; 8 g/ha, 0.5 h after contact): 100% | Effect % ([1]; 8 g/ha, 1 h after contact): 100% | Effect % ([1]; 8 g/ha, 2 h after contact): 100% | Effect % ([1]; 8 g/ha, 3 h after contact): 100% | Effect % ([1]; 8 g/ha, 4 h after contact): 100% | Effect % ([1]; 8 g/ha, 24 h after contact): 100% | Effect % ([1]; 40 g/ha, 0.25 h after contact): 100% | Effect % ([1]; 40 g/ha, 0.5 h after contact): 100% | Effect % ([1]; 40 g/ha, 1 h after contact): 100% | Effect % ([1]; 40 g/ha, 2 h after contact): 100% | Effect % ([1]; 40 g/ha, 3 h after contact): 100% | Effect % ([1]; 40 g/ha, 4 h after contact): 100% | Effect % ([1]; 40 g/ha, 24 h after contact): 100% | Effect % ([1]; 200 g/ha, 0.25 h after contact): 100% | Effect % ([1]; 200 g/ha, 0.5 h after contact): 100% | Effect % ([1]; 200 g/ha, 1 h after contact): 100% | Effect % ([1]; 200 g/ha, 2 h after contact): 100% | Effect % ([1]; 200 g/ha, 3 h after contact): 100% | Effect % ([1]; 200 g/ha, 4 h after contact): 100% | Effect % ([1]; 200 g/ha, 24 h after contact): 100% | Effect % ([1]; 1000 g/ha, 0.25 h after contact): 100% | Effect % ([1]; 1000 g/ha, 0.5 h after contact): 100% | Effect % ([1]; 1000 g/ha, 1 h after contact): 100% | Effect % ([1]; 1000 g/ha, 2 h after contact): 100% | Effect % ([1]; 1000 g/ha, 3 h after contact): 100% | Effect % ([1]; 1000 g/ha, 4 h after contact): 100% | Effect % ([1]; 1000 g/ha, 24 h after contact): 100%

CC1(C)[C@H](C=C(Cl)Cl)[C@H]1C(=O)OCc1c(F)c(F)cc(F)c1F [Transfluthrin, (1R,3S)-3-(2,2-Dichlorovinyl)-2,2-dimethyl-1-cyclopropanecarboxylic acid (2,3,5,6-tetrafluorophenyl)methyl ester]
Amount of animals that are knocked down/killed ([2]; 0.001 mg Transfluthrin/ml Aceton, 10 min after spray): 0 | Amount of animals that are knocked down/killed ([2]; 0.001 mg Transfluthrin/ml Aceton, 15 min after spray): 0 | Amount of animals that are knocked down/killed ([2]; 0.001 mg Transfluthrin/ml Aceton, 20 min after spray): 0 | Amount of animals that are knocked down/killed ([2]; 0.001 mg Transfluthrin/ml Aceton, 30 min after spray): 0 | Amount of animals that are knocked down/killed ([2]; 0.001 mg Transfluthrin/ml Aceton, 60 min after spray): 1 | Amount of animals that are knocked down/killed ([2]; 0.001 mg Transfluthrin/ml Aceton, 120 min after spray): 1 | Amount of animals that are knocked down/killed ([2]; 0.001 mg Transfluthrin/ml Aceton, 240 min after spray): 0 | Amount of animals that are knocked down/killed ([2]; 0.001 mg Transfluthrin/ml Aceton, 1440 min after spray): 3 | Amount of animals that are knocked down/killed ([2]; 0.01 mg Transfluthrin/ml Aceton, 10 min after spray): 6 | Amount of animals that are knocked down/killed ([2]; 0.01 mg Transfluthrin/ml Aceton, 15 min after spray): 9 | Amount of animals that are knocked down/killed ([2]; 0.01 mg Transfluthrin/ml Aceton, 20 min after spray): 10 | Amount of animals that are knocked down/killed ([2]; 0.01 mg Transfluthrin/ml Aceton, 30 min after spray): 10 | Amount of animals that are knocked down/killed ([2]; 0.01 mg Transfluthrin/ml Aceton, 60 min after spray): 10 | Amount of animals that are knocked down/killed ([2]; 0.01 mg Transfluthrin/ml Aceton, 120 min after spray): 10 | Amount of animals that are knocked down/killed ([2]; 0.01 mg Transfluthrin/ml Aceton, 240 min after spray): 10 | Amount of animals that are knocked down/killed ([2]; 0.01 mg Transfluthrin/ml Aceton, 1440 min after spray): 7 | Amount of animals that are knocked down/killed ([2]; 0.1 mg Transfluthrin/ml Aceton, 10 min after spray): 9 | Amount of animals that are knocked down/killed ([2]; 0.1 mg Transfluthrin/ml Aceton, 15 min after spray): 10 | Amount of animals that are knocked down/killed ([2]; 0.1 mg Transfluthrin/ml Aceton, 20 min after spray): 10 | Amount of animals that are knocked down/killed ([2]; 0.1 mg Transfluthrin/ml Aceton, 30 min after spray): 10 | Amount of animals that are knocked down/killed ([2]; 0.1 mg Transfluthrin/ml Aceton, 60 min after spray): 10 | Amount of animals that are knocked down/killed ([2]; 0.1 mg Transfluthrin/ml Aceton, 120 min after spray): 10 | Amount of animals that are knocked down/killed ([2]; 0.1 mg Transfluthrin/ml Aceton, 240 min after spray): 10 | Amount of animals that are knocked down/killed ([2]; 0.1 mg Transfluthrin/ml Aceton, 1440 min after spray): 9 | Efficiency against insecticide-resistant bed bug strain ([2]; in vivo): efficient
